The values below are quoted from earlier work in patent US20190090531A1, “TOBACCO FILLING FOR NON-COMBUSTION-TYPE HEATING SMOKING ARTICLE” (JAPAN TOBACCO INC., priority 2016, published 2019).

[1] abbreviates: Table 1, in water at normal temperature (25° C.).

The structures appear in SMILES notation. Like-named read-outs stand apart in the source and are kept apart here.

As for `CCCCCCCCCC(=O)O` [Decanoic acid], under setting [1], the “Acid dissociation constant pKa1” value is reported as 4.90.

In the case of `CCCCCCCCCCCCCCCCCCCCC(=O)O` [Heneicosanoic acid], the “Acid dissociation constant pKa1” value under setting [1] was “≈5.00”.

`O=C1O[C@H]([C@H](O)CO)C(O)=C1O` [Isoascorbic acid]: the “Acid dissociation constant pKa1” value is listed as 4.13 under setting [1] and 4.13 (Table 2, in water at 25° C.).

For `CCCCCCCCCCCC(=O)O` [Lauric acid], the “Acid dissociation constant pKa1” value under setting [1] is given as 5.20.

`CC(=O)CCC(=O)O` [Levulinic acid]: the “Acid dissociation constant pKa1” value under setting [1] is given as 4.44.

With `CCCCCCCCCCCCCCCCCCCCCCCC(=O)O` [Lignoceric acid], the “Acid dissociation constant pKa1” value reads like this: under setting [1], “≈5.00”; (Table 2, in water at 25° C.) “≈5.00”.

For the compound `CC/C=C\C/C=C\C/C=C\CCCCCCCC(=O)O` [Linolenic acid], the “Acid dissociation constant pKa1” value under setting [1] is “≈5.00”.

For the compound `CCCCCCCCCCCCCC(=O)O` [Myristic acid], the “Acid dissociation constant pKa1” value under setting [1] was “≈5.00”.

With `CCCCCCCCCCCCCCCCCCC(=O)O` [Nonadecanoic acid], the “Acid dissociation constant pKa1” value under setting [1] is “≈5.00” and the “Acid dissociation constant pKa1” value (Table 2, in water at 25° C.) is “≈5.00”.

On to `CCCCCCCCCCCCCCCCCCCCCCCCCCCC(=O)O` [Octacosanoic acid], for which the “Acid dissociation constant pKa1” value under setting [1] is reported as “≈5.00”.

With `CCCCCCCCCCCCCCCC(=O)O` [Palmitic acid], under setting [1], the “Acid dissociation constant pKa1” value is “≈5.00”.

As to `CC(=O)C(=O)O` [Pyruvic acid], the “Acid dissociation constant pKa1” value under setting [1] is reported as 2.50.

As for `C/C=C/C=C/C(=O)O` [Sorbic acid], under setting [1], the “Acid dissociation constant pKa1” value is given as 4.76.

As for `CCCCCCCCCCCCCCCCCC(=O)O` [Stearic acid], the “Acid dissociation constant pKa1” value under setting [1] was “≈5.00”.
